The values that follow come from patent US6017911A, “Pyridonecarboxylic acid derivatives and intermediates for the synthesis thereof” (Dainippon Pharmaceutical Co., Ltd., priority 1996, dated 2000).

≈ marks a conversion by molar mass, not a printed value. Like-named read-outs stand apart in the source and are kept apart here.

The subject of assay [1] is Staphylococcus aureus 50774. As to the kind of experiment: In vitro antibacterial activity (MIC), Staphylococcus aureus 50774. The settings on record: Staphylococcus aureus 50774; read-out: Minimum inhibitory concentration (MIC). The class given is cell-based.
In assay [2] the test system is Escherichia coli NIHJ JC-2. Put plainly: In vitro antibacterial activity (MIC), Escherichia coli NIHJ JC-2. The format is cell-based. Conditions: NIHJJC2, read-out: Minimum inhibitory concentration (MIC).
For assay [3], the system named is Staphylococcus aureus 50774. Put plainly: Effect on systemic infection in mice. The class given is in vivo, mice (male Std-ddy strain). The settings on record: 168 h; Staphylococcus aureus 50774 i.p. infection; oral, twice (immediately and 6 h after infection); survival 7 days after infection. As for the experimental part:
The effects (ED50; mg/kg) on systemic infection in mice were determined as follows: Male Std-ddy strain mice (weighing about 20 g) were infected with each of the pathogenic bacteria shown in Table 2 by administering 5×10^3 viable cells intraperitoneally to each mouse. Then, a suspension of each test compound in 0.4% carboxymethylcellulose was orally administered twice, i.e., immediately after infection and 6 hours after infection. Seven days after infection, the ED50 value was calculated from the survival rate of each mouse group by probit analysis.
As a reference compound, there was used enoxacin [1-ethyl-6-fluoro-1,4-dihydro-4-oxo-7-(1-piperazinyl-1,8-naphthyridine-3-carboxylic acid; hereinafter abbreviated as ENX] that is an excellent antibacterial agent currently on the market.
The test compounds shown in the following Tables 1 and 2 are identified by the respective numbers of the Examples which will be given later.

Assay [4] relates to Pseudomonas aeruginosa No 12. As to the kind of experiment: In vitro antibacterial activity (MIC), Pseudomonas aeruginosa No 12. The class given is cell-based. Conditions: NO12, read-out: Minimum inhibitory concentration (MIC).
The test system of assay [5] is Staphylococcus aureus MS16405. Put plainly: In vitro antibacterial activity (MIC), Staphylococcus aureus MS16405. The class given is cell-based.
The mark [6] stands for this setting: Staphylococcus aureus MS16405, read-out: Minimum inhibitory concentration (MIC).
Where [7] appears, read: Staphylococcus aureus, MS16405, read-out: Minimum inhibitory concentration (MIC).

What is called ED50 is the dose that gives a 50% effect, or the effect in half of the subjects. `CN[C@H]1CN(c2c(F)c(C)c3c(=O)c(C(=O)O)cn(C4CC4)c3c2OC)[C@@H]2CCO[C@H]12` (relative stereo) [Example 8]: the MIC in assay [1] was found to be 0.013 µg/mL (≈ 0.0301 µM); in assay [2], 0.2 µg/mL (≈ 0.464 µM); in assay [4], 1.56 µg/mL (≈ 3.62 µM); in assay [5] (setting [6]) it was 3.13 µg/mL (≈ 7.25 µM). Also, the median effective dose (ED50) in assay [3] was 0.345 mg/kg.
As for `N[C@H]1CN(c2c(F)cc3c(=O)c(C(=O)O)cn(C4CC4)c3c2F)[C@@H]2CCO[C@@H]21` (relative stereo) [Example 18], the MIC in assay [1] was determined as 0.025 µg/mL (≈ 0.0639 µM); in assay [2], 0.006 µg/mL (≈ 0.0153 µM); in assay [4], 0.39 µg/mL (≈ 0.996 µM); in assay [5] (setting [6]) it was 1.56 µg/mL (≈ 3.99 µM). The same compound yielded an ED50 in assay [3] of 0.928 mg/kg.
`COc1c(N2C[C@H](N)[C@H]3OCCC[C@H]32)c(F)c(N)c2c(=O)c(C(=O)O)cn(C3CC3)c12` (relative stereo) [Example 12]: the MIC in assay [1] came to 0.013 µg/mL (≈ 0.0301 µM); in assay [2] it was 0.1 µg/mL (≈ 0.231 µM); in assay [4] it was 1.56 µg/mL (≈ 3.61 µM); in assay [5] (setting [6]), 0.39 µg/mL (≈ 0.902 µM). Besides, in assay [3], it took a dose of 0.715 mg/kg to reach the 50% effect level (ED50).
The like results for `COc1c(N2C[C@@H](N)[C@H]3OCC[C@H]32)c(F)c(N)c2c(=O)c(C(=O)O)cn(C3CC3)c12` (relative stereo) [Example 13] were, in that order, 0.013 µg/mL (≈ 0.0311 µM), 0.05 µg/mL (≈ 0.119 µM), 0.78 µg/mL (≈ 1.86 µM), 1.56 µg/mL (≈ 3.73 µM) and 0.778 mg/kg.
The corresponding values for `N[C@H]1CN(c2c(F)cc3c(=O)c(C(=O)O)cn(C4CC4)c3c2Cl)[C@@H]2CCO[C@@H]21` (relative stereo) [Example 15] are 0.025 µg/mL (≈ 0.0613 µM), 0.013 µg/mL (≈ 0.0319 µM), 0.78 µg/mL (≈ 1.91 µM), 0.78 µg/mL (≈ 1.91 µM) and 1.12 mg/kg.
Turning to `COc1c(N2C[C@H](N)[C@H]3OCC[C@H]32)c(F)c(C)c2c(=O)c(C(=O)O)cn(C3CC3)c12` (relative stereo) [Example 5], the MIC was at most 0.003 µg/mL in assay [1], 0.025 µg/mL (≈ 0.0599 µM) in assay [2], 0.78 µg/mL (≈ 1.87 µM) in assay [4] and 0.39 µg/mL (≈ 0.934 µM) in assay [5] (setting [6]). The ED50 in assay [3] is 0.257 mg/kg.
Turning to `COc1c(N2C[C@@H](N)[C@H]3OCC[C@H]32)c(F)c(C)c2c(=O)c(C(=O)O)cn(C3CC3)c12` (relative stereo) [Example 16], the MIC in assay [1] is 0.006 µg/mL (≈ 0.0144 µM); in assay [2], 0.1 µg/mL (≈ 0.24 µM); in assay [4] it was 1.56 µg/mL (≈ 3.74 µM); in assay [5] (setting [6]), 1.56 µg/mL (≈ 3.74 µM). For the same compound, the 50% effective dose (ED50) in assay [3] was determined as 0.78 mg/kg.
For `Nc1c(F)c(N2C[C@H](N)[C@H]3OCC[C@H]32)c(F)c2c1c(=O)c(C(=O)O)cn2C1CC1` (relative stereo) [Example 3, 5-Amino-7-[(1R*,5R*,8S*)-8-amino-2-oxa-6-azabicyclo[3.3.0]oct-6-yl]-1-cyclopropyl-6,8-difluoro-1,4-dihydro-4-oxoquinoline-3-carboxylic acid], the MIC in assay [1] was found to be 0.013 µg/mL (≈ 0.032 µM); in assay [2], 0.006 µg/mL (≈ 0.0148 µM); in assay [4], 0.2 µg/mL (≈ 0.492 µM); in assay [5] (setting [6]), 1.56 µg/mL (≈ 3.84 µM). In assay [3], this compound registered an ED50 of 0.398 mg/kg.
The like results for `CN[C@H]1CN(c2c(F)cc3c(=O)c(C(=O)O)cn(C4CC4)c3c2OC)[C@@H]2CCO[C@H]12` (relative stereo) [Example 6] were, in that order, 0.025 µg/mL (≈ 0.0599 µM), 0.025 µg/mL (≈ 0.0599 µM), 1.56 µg/mL (≈ 3.74 µM), 1.56 µg/mL (≈ 3.74 µM) and 0.292 mg/kg.
For `COc1c(N2C[C@H](N)[C@H]3OCC[C@H]32)c(F)c(N)c2c(=O)c(C(=O)O)cn(C3CC3)c12` (relative stereo) [Example 4], the MIC was 0.006 µg/mL (≈ 0.0143 µM) in assay [1], 0.025 µg/mL (≈ 0.0597 µM) in assay [2], 0.78 µg/mL (≈ 1.86 µM) in assay [4] and 0.39 µg/mL (≈ 0.932 µM) in assay [5] (setting [7]). The compound also gave a median effective dose (ED50) in assay [3] of 0.246 mg/kg.
The like results for `COc1c(N2C[C@H](N)[C@H]3OCC[C@H]32)c(F)cc2c(=O)c(C(=O)O)cn(C3CC3)c12` (relative stereo) [Example 1, 7-[(1R*,5R*,8S*)-8-amino-2-oxa-6-azabicyclo[3.3.0]oct-6-yl]-1-cyclopropyl-6-fluoro-1,4-dihydro-8-methoxy-4-oxoquinoline-3-carboxylic acid] were, in that order, at most 0.003 µg/mL, 0.013 µg/mL (≈ 0.0322 µM), 0.39 µg/mL (≈ 0.967 µM), 0.39 µg/mL (≈ 0.967 µM) and 0.36 mg/kg.
With `N[C@H]1CN(c2c(F)cc3c(=O)c(C(=O)O)cn(C4CC4)c3c2OC(F)F)[C@@H]2CCO[C@@H]21` (relative stereo) [Example 14], the MIC in assay [1] amounted to 0.025 µg/mL (≈ 0.0569 µM); in assay [2], 0.025 µg/mL (≈ 0.0569 µM); in assay [4] it was 1.56 µg/mL (≈ 3.55 µM); in assay [5] (setting [6]) it was 1.56 µg/mL (≈ 3.55 µM). In addition, the ED50 in assay [3] is at most 0.78 mg/kg.
On to `COc1c(N2C[C@H](N)[C@H]3OCC[C@H]32)c(F)cc2c(=O)c(C(=O)O)cn([C@@H]3C[C@@H]3F)c12` (relative stereo) [Example 2, 7-[(1R*,5R*,8S*)-8-amino-2-oxa-6-azabicyclo[3.3.0]oct-6-yl]-6-fluoro-1-[(1R,2S)-2-fluorocyclopropyl]-1,4-dihydro-8-methoxy-4-oxoquinoline-3-carboxylicacid], for which the MIC came out at 0.006 µg/mL (≈ 0.0142 µM) in assay [1], 0.013 µg/mL (≈ 0.0308 µM) in assay [2], 0.39 µg/mL (≈ 0.925 µM) in assay [4] and 0.39 µg/mL (≈ 0.925 µM) in assay [5] (setting [7]). The same compound displayed an ED50 in assay [3] of 0.383 mg/kg.
